Data taken from patent publication US20090176772A1, “METHOD OF REVERSING LEFT VENTRICULAR REMODELING” (priority 2004, published 2009).

How the values were obtained:
[1] = tested on: dogs with chronic heart failure produced by multiple sequential intracoronary microembolizations; experiment: Blood neurohumoral and electrolyte measurements in dogs with chronic heart failure; assay type: in vivo, dog; conditions: mean±SEM; for T-PNE = transmyocardial norepinephrine: aorta minus coronary sinus
Text: (§1) The following example examines the effects of ranolazine alone and in combination with an angiotensin converting enzyme (ACE) inhibitor and in combination with a beta-blocker on the progression of left ventricular (LV) dysfunction and LV chamber remodeling in dogs with chronic heart failure produced by multiple sequential intracoronary microembolizations.
(§2) Chronic LV dysfunction and failure in dogs was produced by multiple sequential intracoronary embolizations with polystyrene Latex microspheres (77-109 μm in diameter) as previously described by Sabbah et al. (1991) Am. J. Physiol. 260:H1379-H1384. Coronary microembolizations were performed during cardiac catheterization under general anesthesia and sterile conditions. Anesthesia was induced using a combination of intravenous injections of hydromorphone (0.22 mg/kg), diazepam (0.2-0.6 mg/kg) and sodium pentobarbital 50-100 mg to effect. Plane of anesthesia was maintained throughout the study using 1% to 2% isoflurane. Left and right heart catheterization was performed via a femoral arteriotomy and venotomy. After each catheterization, the vessels were repaired using 6-0 silk and the skin closed with 4-0 suture. Microembolizations were discontinued when LV ejection fraction, determined angiographically, was between 30% and 40%. A period of 2 weeks was allowed after the last embolization to ensure that infarctions produced by the last microembolizations have completely healed and heart failure was established. The study protocol was then performed.
(§3) Healthy, conditioned, purpose-bred mongrel dogs weighing between 19 and 25 kg.
(§4) A randomized, blinded, placebo controlled study design was used. A total of 28 dogs underwent multiple sequential intracoronary microembolizations as described above to produce chronic heart failure. Two weeks after the last embolization, dogs were randomized into 4 study groups (treatment arms). Dogs were randomized to 3 months oral therapy with ranolazine alone (375 mg, bid, n=7), ranolazine (375 mg bid) in combination with metoprolol tartrate (25 mg bid, n=7), ranolazine (375 mg bid) in combination with enalapril (10 mg bid, n=7), or placebo (ranolazine vehicle bid, n=7). Hemodynamic, angiographic, echocardiographic, Doppler and neurohumoral measurements were made prior to randomization (2 weeks after the last embolization) and after completion of therapy (3 months after initiating therapy). After completing the final hemodynamic and angiographic study, dogs were euthanized and the hearts removed and tissue prepared and saved for future histological and biochemical evaluations. The study primary and secondary end-points were as follows:
Evaluation of plasma concentrations of several neurohormones were made to complement the hemodynamic assessments. Measurements were made at each of the study time periods described for hemodynamic and angiographic assessments. Transmyocardial PNE concentration was estimated by obtaining blood samples from the ascending aorta and coronary sinus during cardiac catheterization. Transmyocardial PNE was calculated as the difference between the two samples. Venous blood samples were obtained in duplicate from conscious dogs prior to cardiac catheterizations for measurement of plasma concentration of norepinephrine, plasma renin activity and plasma atrial natriuretic factor using radioimmunoassay. In addition, blood samples were obtained at the same time intervals for determination of serum electrolytes (Na+, K+, creatinine and BUN).
To ensure that all study measures were similar at baseline, comparisons were made between all 4 study groups before any embolizations and at the time of randomization before initiation of therapy. For these comparisons, a one way analysis of variance (ANOVA) was used with a set at 0.05. If significance was attained, then group wise comparisons were made using the Student-Newman-Kuels test with significance set at p≦0.05. […]

[2] = tested on: dogs with chronic heart failure produced by multiple sequential intracoronary microembolizations; experiment: Echocardiographic and Doppler measurements in dogs with chronic heart failure; assay type: in vivo, dog; conditions: mean±SEM
Text: as §1, §2, §3, §4
Echocardiographic and Doppler studies were performed in all dogs at all specified study time points using a 77030A ultrasound system (Hewlett-Packard) with a 3.5 MHZ transducer. All echocardiographic measurements were made with the dog placed in the right lateral decubitus position and recorded on a Panasonic 6300 VHS recorder for subsequent off-line analysis. Transverse 2-dimensional echocardiograms were obtained at the level of the LV papillary muscle and were used to calculate LV fractional area of shortening. The latter was calculated as the end-diastolic LV cavity area minus the end-systolic cavity area divided by the end-diastolic cavity area times 100. Two chamber view 2-dimensional echocardiograms were also obtained to ascertain LV major and minor semiaxes to be used for calculation of LV end-diastolic circumferential wall stress. Wall stress was calculated as follows: Stress=Pb/h(1−h/2b)(1−hb/2a2), where P is LV end-diastolic pressure, a is LV major semiaxis, b is LV minor semiaxis, and h is LV wall thickness.
Mitral inflow velocity was measured by pulsed-wave Doppler echocardiography. The velocity waveforms were used to calculate peak mitral flow velocity in early diastole (PE), peak mitral inflow velocity during LA contraction (PA), the ratio of PE to PA and early mitral inflow deceleration time. […]

[3] = POST: after 3 months of oral therapy bid
[4] = PRE: at time of randomization, before therapy
[5] = change from pre-treatment to post-treatment (3 months)

SMILES: COc1ccccc1OCC(O)CN1CCN(CC(=O)Nc2c(C)cccc2C)CC1 (racemic) [RAN Alone, (±)-N-(2,6-dimethylphenyl)-4-[2-hydroxy-3-(2-methoxyphenoxy)-propyl]-1-piperazineacetamide]
- T-PNE = transmyocardial norepinephrine [1, 3]: −2.9 ± 6.1
- ANF = atrial natriuretic factor [1, 3]: 67 ± 11 pg/mL
- BUN = blood urea nitrogen [1, 3]: 15 ± 2 mg/dL
- Creat = serum creatinine [1, 3]: 1.0 ± 0.1 mg/dL
- K+ (serum electrolyte) [1, 3]: 4.7 ± 0.1
- Na+ (serum electrolyte) [1, 3]: 147 ± 0.8
- PNE = plasma norepinephrine [1, 3]: 199 ± 43 pg/mL
- PRA = plasma rennin activity [1, 3]: 1.57 ± .55 ng/mL/h
- T-PNE = transmyocardial norepinephrine [1, 4]: 8.6 ± 7.0
- ANF = atrial natriuretic factor [1, 4]: 87 ± 15 pg/mL
- BUN = blood urea nitrogen [1, 4]: 18 ± 2 mg/dL
- Creat = serum creatinine [1, 4]: 0.9 ± 0.0 mg/dL
- K+ (serum electrolyte) [1, 4]: 4.5 ± 0.1
- Na+ (serum electrolyte) [1, 4]: 147 ± 0.5
- PNE = plasma norepinephrine [1, 4]: 217 ± 25 pg/mL
- PRA = plasma rennin activity [1, 4]: 1.69 ± .71 ng/mL/h
- Δ ANF (atrial natriuretic factor) [1, 5]: 20 ± 14 pg/mL
- Δ BUN (blood urea nitrogen) [1, 5]: -2.1 ± 1.4 mg/dL
- Δ Creat (serum creatinine) [1, 5]: 0.0 ± 0.1 mg/dL
- Δ K+ [1, 5]: 0.1 ± 0.1
- Δ Na+ [1, 5]: −0.3 ± 1.0
- Δ PNE (plasma norepinephrine) [1, 5]: -19 ± 42 pg/mL
- Δ PRA (plasma rennin activity) [1, 5]: 0.13 ± 0.92 ng/mL/h
- Δ T-PNE (transmyocardial norepinephrine) [1, 5]: −11 ± 9
- DT = deceleration time [2, 3]: 87 ± 4 ms
- EDWS = LV end-diastolic circumferential wall stress [2, 3]: 42 ± 4 gm-cm^2
- FAS = LV fractional area of shortening [2, 3]: 29 ± 2%
- MR = severity of mitral regurgitation [2, 3]: 10.1 ± 1.3%
- PE/PA (mitral inflow velocity ratio) [2, 3]: 2.8 ± 0.3
- DT = deceleration time [2, 4]: 88 ± 3 ms
- EDWS = LV end-diastolic circumferential wall stress [2, 4]: 56 ± 5 gm-cm^2
- FAS = LV fractional area of shortening [2, 4]: 28 ± 1%
- MR = severity of mitral regurgitation [2, 4]: 11.3 ± 1.9%
- PE/PA (mitral inflow velocity ratio) [2, 4]: 2.7 ± 0.3
- Δ DT (deceleration time) [2, 5]: -1 ± 4 ms
- Δ EDWS (LV end-diastolic circumferential wall stress) [2, 5]: −14.5 ± 5.2 gm-cm^2
- Δ FAS (LV fractional area of shortening) [2, 5]: 1 ± 1 %
- Δ MR (severity of mitral regurgitation) [2, 5]: −1.2 ± 1.1%
- Δ PE/PA [2, 5]: 0.0 ± 0.4
